Like-named read-outs stand apart in the source and are kept apart here.
Legend:
[1] = tested on: vascular smooth muscle cell line (VSMC); test: LDH release cytotoxicity assay, VSMC; type: cell-based; conditions: Homo sapiens, 18 h
Experimental: (§1) Cytotoxicity assays. WI-L2 human B-lymphocyte line, HAAE-1 human abdominal aortic endothelial line, MH-S murine alveolar macrophage line, and J774A.1 murine tissue macrophage line were obtained from the ATCC. Human aortic endothelial cells (HAEC) and human vascular smooth muscle cells (VSMS) were obtained from Cambrex Bio Science. Jurkat E6-1T-lymphocytes were kindly provided by Dr. J. Kaye (The Scripps Research Institute). Cells were cultured in ATCC-recommended media with 10% fetal calf serum. Cells were incubated in a controlled atmosphere at 37° C., with 5 or 7% CO2. For lactate dehydrogenase (LDH) release assays, adherent cells were harvested either by addition of 0.05% trypsin/EDTA or by scraping. The cells obtained were seeded onto 96-well microtiter plates (25,000 cells/well) and allowed to recover for 24-48 h. […] Cytotoxicity was then determined by measuring lactate dehydrogenase (LDH) release from cells in culture. […] 100% Cytotoxicity was defined as the maximum amount of LDH released by dead cells as shown by trypan blue exclusion, or the highest amount of LDH detected upon lysis of cells by 0.9% Triton X-100. The IC50 values were determined by comparison of the raw duplicate data for concentration versus cytotoxicity (%) to non-linear regression analysis (Hill plot) using Graphpad v3.0 software for Macintosh. […]

[2] = tested on: Human aortic endothelial cells (HAEC); test: LDH release cytotoxicity assay, HAEC; type: cell-based; conditions: Endothelial cell, 18 h
Experimental: as §1

[3] = tested on: J774A.1 murine tissue macrophage line; test: LDH release cytotoxicity assay, J774A.1; type: cell-based
Experimental: Cytotoxicity assays. WI-L2 human B-lymphocyte line, HAAE-1 human abdominal aortic endothelial line, MH-S murine alveolar macrophage line, and J774A.1 murine tissue macrophage line were obtained from the ATCC. Human aortic endothelial cells (HAEC) and human vascular smooth muscle cells (VSMS) were obtained from Cambrex Bio Science. Jurkat E6-1T-lymphocytes were kindly provided by Dr. J. Kaye (The Scripps Research Institute). Cells were cultured in ATCC-recommended media with 10% fetal calf serum. Cells were incubated in a controlled atmosphere at 37° C., with 5 or 7% CO2. For lactate dehydrogenase (LDH) release assays, adherent cells were harvested either by addition of 0.05% trypsin/EDTA or by scraping. The cells obtained were seeded onto 96-well microtiter plates (25,000 cells/well) and allowed to recover for 24-48 h. […] Cytotoxicity was then determined by measuring lactate dehydrogenase (LDH) release from cells in culture. […] 100% Cytotoxicity was defined as the maximum amount of LDH released by dead cells as shown by trypan blue exclusion, or the highest amount of LDH detected upon lysis of cells by 0.9% Triton X-100. The IC50 values were determined by comparison of the raw duplicate data for concentration versus cytotoxicity (%) to non-linear regression analysis (Hill plot) using Graphpad v3.0 software for Macintosh.

[4] = tested on: WI-L2 human B-lymphocyte line; test: LDH release cytotoxicity assay, WI-L2; type: cell-based; conditions: Homo sapiens; WIL2; LDH release, 0-100 μM, 18 h
Experimental: Cytotoxicity assays. WI-L2 human B-lymphocyte line, HAAE-1 human abdominal aortic endothelial line, MH-S murine alveolar macrophage line, and J774A.1 murine tissue macrophage line were obtained from the ATCC. Human aortic endothelial cells (HAEC) and human vascular smooth muscle cells (VSMS) were obtained from Cambrex Bio Science. Jurkat E6-1T-lymphocytes were kindly provided by Dr. J. Kaye (The Scripps Research Institute). Cells were cultured in ATCC-recommended media with 10% fetal calf serum. Cells were incubated in a controlled atmosphere at 37° C., with 5 or 7% CO2. For lactate dehydrogenase (LDH) release assays, adherent cells were harvested either by addition of 0.05% trypsin/EDTA or by scraping. The cells obtained were seeded onto 96-well microtiter plates (25,000 cells/well) and allowed to recover for 24-48 h. Cells were washed gently and media replaced with fresh media containing 5% fetal calf serum. […] Cytotoxicity was then determined by measuring lactate dehydrogenase (LDH) release from cells in culture. […] 100% Cytotoxicity was defined as the maximum amount of LDH released by dead cells as shown by trypan blue exclusion, or the highest amount of LDH detected upon lysis of cells by 0.9% Triton X-100. The IC50 values were determined by comparison of the raw duplicate data for concentration versus cytotoxicity (%) to non-linear regression analysis (Hill plot) using Graphpad v3.0 software for Macintosh.
The following cell lines were employed in this study: a human B-lymphocyte (WI-L2) described in Levy et al., Cancer 22, 517 (1968); a T-lymphocyte cell line (Jurkat E6.1) described in Weiss et al., J. Immunol. 133, 123 (1984); a vascular smooth muscle cell line (VSMC) and an abdominal aorta endothelial (HAEC) cell line described in Folkman et al., Proc. Natl. Acad. Sci. U.S.A. 76, 5217 (1979); a murine tissue macrophage (J774A.1) described in Ralph et al., J. Exp. Med. 143, 1528 (1976); and an alveolar macrophage cell line (MH-S) described in Mbawuike et al., J. Leukoc. Biol. 46, 119 (1989).

J774A.1 macrophages [5] = test: Modified Boyden chamber migration (chemotaxis) assay; type: cell-based, murine; conditions: for recruitment (migration) of macrophages: 0-25 μM, 4 h
Experimental: Chemotaxis and invasion assays were performed using a modified Boyden chamber migration assay. Zwirner et al. (1998) Eur. J. Immunol. 28: 1570-77; Wilkinson (1988) Methods Enzymol. 162: 38-50. Assays were set up on MultiScreen-MIC plates (Millipore, Billerica, Mass., USA) with polyvinylpyrrolidone-free polycarbonate membranes (5 μm pore size). Cells (murine macrophage J774A.1) were washed and resuspended in serum-free DMEM containing 0.2% BSA at 1×10^6 cells/ml. Fifty microliters of cells were added to the upper wells and 150 μl of chemoattractant in DMEM/0.2% BSA were added to the lower wells of the microchamber. Incubation time was for 4 h at 37° C. in an 8% CO2 atmosphere. After swiping cells off the upper side of the membrane, cells on the lower side were visualized by either staining and phase contrast microscopy, or fluorescence. Cells that had adhered to the membrane were stained using a DiffQuik staining kit (Dade Behring, Newark, Del.). Each experiment was performed in triplicate and the numbers of migrating cells were counted in five fields at ×200. Cells harvested with PBS-EDTA for fluorescent labeling were washed two times with PBS, then resuspended in serum-free medium containing calcein AM (5 μM). Cells were incubated for 30 min (37° C., 5% CO2) with gentle intermittent mixing. Calcein-labeled cells were washed twice, and calcein fluorescence ([…]) was measured using a SPECTRAmax™ GEMINI dual-scanning microplate spectrofluorometer. Fluorescence measurements were compared to a standard curve, generated by dilution of cells in PBS/BSA in 100 μl, dispensed into 96-well plates. Fluorescence was quantified as described above.

THP-1 monocytes = test: Monocyte morphology changes (differentiation into macrophages); type: cell-based, human; conditions: for THP-1 cell adherence (differentiation into macrophages): 12.5 or 25 μM, 7 days
Experimental: THP-1 monocytes in suspension were plated in 8-well chambered slides. […] Media containing appropriate treatment compounds was replaced after 4 days. […]

J774A.1 macrophages [6] = test: Uptake and localization in macrophages by fluorescence microscopy; type: cell-based, murine; conditions: 50 μM dansyl derivative, 5 min to 1 h; not complexed with LDL
Experimental: J774A.1 cells were plated in 8-well chambered slides (Nalge Nunc International). Cells were gently washed twice with PBS, pH 7.4 before 5 min or 1 h exposure to 50 μM dansyl derivative of cholesterol ozonation product 5d or 5e, dansyl cholesterol derivative 9c or 9d, or dansyl hydrazine diluted in media without FCS (0.05% v/v final DMSO concentration). [drawing 28] Media was removed by aspiration and cells were fixed immediately in 95% ice cold methanol for 5 min. Cells were mounted in glycerol containing Antifade reagent (Molecular Probes). Fluorescence images were documented using DeltaVision Deconvolution microscope (API, Issaquah WA) equipped with a Photometrics CH350L liquid cooled CCD camera attached to an Olympus IX—70 inverted microscope. […] All images were deconvolved using constrained iterative algorithms (10 iterations) of DeltaVision software (softWoRx, v2.5). The deconvolved images were subsequently processed using softWoRx, v2.5.
In some experiments, murine macrophage RAW 264.7 (ECACC 91062702) cells were grown in RPMI (Gibco) with 10% FCS at 37° C. with 5% CO2. For fluorescence imaging, cells were incubated on cover slips in 6-well chambered plates (Costar) for 12 h, gently washed 3 times in PBS at pH 7.4, and incubated with 50 μM dansyl derivative of cholesterol ozonation product 5d or 5e, dansyl cholesterol derivative 9c or 9d, in RPMI with 10% FCS for 5, 15, 30, and 60 min. A solution of the dansyl derivative was then added in DMSO [final DMSO, 0.05% (v/v)]. Media was removed by aspiration, and cells were washed twice with PBS, followed by fixing in paraformaldehyde (3.7% in PBS) for 10 min. Cover slips were mounted in MOWIOL 4-88 (Calbiochem). Microscopy was performed using an inverted Zeiss Axioscope 2 Plus fluorescence microscope, and images were obtained with a Zeiss Axiocam digital camera using Axiovision software (version 3.1). The data were collected using a 63× oil immersion lens and DAPI filter (excitation 360/emission 460), and images were processed with Axiovision software and Adobe software (Photoshop 6.0).

[7] = complexed with native LDL (100 μg/ml)

Row | Compound | IC50 ([1]; LDH release, 0-100 μM, read-out: IC50) | IC50 ([2]; HAEC, LDH release, 0-100 μM, read-out: IC50) | IC50 ([3]; J774A.1, LDH release, 0-100 μM, 18 h, read-out: IC50) | IC50 [4] | recruitment (migration) of macrophages (J774A.1 macrophages [5]) | migration of macrophages (J774A.1 macrophages [5]; co-incubated with BSA) | migration of macrophages (J774A.1 macrophages [5]; [7]) | THP-1 cell adherence (differentiation into macrophages) (THP-1 monocytes) | uptake and localization in macrophages (J774A.1 macrophages [6]) | IC50 [1] | IC50 [2] | IC50 ([3]; Mus musculus, J774.A1, 18 h) | concentration that causes THP-1 cell differentiation (THP-1 monocytes)
1 | CC(C)CCC[C@@H](C)[C@H]1CCC2C(CC=O)C([C@@]3(C)CC[C@H](O)CC3=O)CC[C@@]21C (stereo partly drawn) [4a, 3β-Hydroxy-5-oxo-5,6-secocholestan-6-al] | 21.9 ± 2.2 µM | 24.6 ± 3.2 µM | 15.6 ± 2.1 µM | 10.9 ± 1.6 µM | stimulate dose-dependent recruitment of macrophages | macrophage migration still occurs | no significant migration | induced no cell adherence | efficiently taken up by macrophages | – | – | – | –
2 | CC(C)CCC[C@@H](C)[C@H]1CCC2C3C(CC[C@@]21C)[C@@]1(C)CC[C@H](O)C[C@@]1(O)[C@@H]3C=O (stereo partly drawn) [5a, 3β-Hydroxy-5β-hydroxy-B-norcholestane-6β-carboxaldehyde] | – | – | – | 17.7 ± 2.3 µM | stimulate dose-dependent recruitment of macrophages | macrophage migration still occurs | no significant migration | began to adhere after 4 days | efficiently taken up by macrophages | 29.8 ± 2.8 µM | 18.2 ± 1.9 µM | 26.1 ± 2.8 µM | 25 µM
